Data: PubChem BioAssay AID1259411 (Chemical Carcinogenesis Research Information System (CCRIS), 2018)
Calls of active or inactive are those of the source. The rule behind the calls is not given here.

Tested on: rodent carcinogenicity bioassays, tumor incidence
Assay: CCRIS carcinogenicity studies
Method in brief: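 NCI-built, expert-reviewed records of carcinogenicity and related test outcomes (mutagenicity, tumor promotion/inhibition) compiled from published and report sources, historical span 1985-2011, not updated.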

SMILES: O=c1cc[nH]c(=S)[nH]1
- carcinogen call (Species: MOUSE, Route: ORAL, Tumor Site: Type of Lesion: LIVER): active; positive
- carcinogen call (Species: RAT, Route: ORAL, Tumor Site: Type of Lesion: THYROID GLAND): active; positive

SMILES: COc1ccc(OC)c(N=Nc2c(O)ccc3ccccc23)c1
- carcinogen call (Species: MOUSE, Strain/Sex: C57 X 1F F1, Route: BLADDER IMPLANT, Dose: 0, 12.5% SUSPENSION IN PARAFFIN WAX (STUDY DURATION: 40 WK), Tumor Site: Type of Lesion: BLADDER: CARCINOMA): active; positive

SMILES: NC(N)=Nc1nc(CSCCN=CNS(=O)(=O)c2ccc(Br)cc2)cs1
- carcinogen call (Species: MOUSE, Strain/Sex: CD-1/FEMALE, Route: ORAL, Dose: 0, 50, 200, 500 MG/KG FOR 18 MO (STUDY DURATION: 18 MO), Dose: 0, 50, 200, 500 MG/KG FOR 18 MO (STUDY DURATION: 18 MO)): inactive; negative
- carcinogen call (Species: MOUSE, Strain/Sex: CD-1/MALE, Route: ORAL, Dose: 0, 50, 200, 500 MG/KG FOR 18 MO (STUDY DURATION: 18 MO), Dose: 0, 50, 200, 500 MG/KG FOR 18 MO (STUDY DURATION: 18 MO)): inactive; negative
- carcinogen call (Species: RAT, Strain/Sex: SPRAGUE-DAWLEY/FEMALE, Route: ORAL, Dose: 0, 50, 200, 500 MG/KG FOR 13 MO THEN 0, 50, 150, 300, 500 MG/KG FOR DURATION OF STUDY (STUDY DURATION: 24 MO), Dose: 0, 50, 200, 500 MG/KG FOR 13 MO THEN 0, 50, 150, 300, 500 MG/KG FOR DURATION OF STUDY (STUDY DURATION: 24 MO)): inactive; negative
- carcinogen call (Species: RAT, Strain/Sex: SPRAGUE-DAWLEY/FEMALE, Route: ORAL, Dose: INITIALLY: 0, 50, 200, 500 MG/KG BW, THEN 0, 50, 150, 300, 500 (200 MG/KG DOSE LOWERED TO 150 MG/KG AFTER 13 MONTHS AND, Dose: INITIALLY: 0, 50, 200, 500 MG/KG BW, THEN 0, 50, 150, 300, 500 (200 MG/KG DOSE LOWERED TO 150 MG/KG AFTER 13 MONTHS AND): inactive; negative
- carcinogen call (Species: RAT, Strain/Sex: SPRAGUE-DAWLEY/MALE, Route: ORAL, Dose: 0, 50, 200, 500 MG/KG FOR 13 MO THEN 0, 50, 150, 300, 500 MG/KG FOR DURATION OF STUDY (STUDY DURATION: 24 MO), Dose: 0, 50, 200, 500 MG/KG FOR 13 MO THEN 0, 50, 150, 300, 500 MG/KG FOR DURATION OF STUDY (STUDY DURATION: 24 MO)): inactive; negative
- carcinogen call (Species: RAT, Strain/Sex: SPRAGUE-DAWLEY/MALE, Route: ORAL, Dose: INITIALLY: 0, 50, 200, 500 MG/KG BW, THEN 0, 50, 150, 300, 500 (200 MG/KG DOSE LOWERED TO 150 MG/KG AFTER 13 MONTHS AND, Dose: INITIALLY: 0, 50, 200, 500 MG/KG BW, THEN 0, 50, 150, 300, 500 (200 MG/KG DOSE LOWERED TO 150 MG/KG AFTER 13 MONTHS AND): inactive; negative

SMILES: Cc1ccc(N)cc1Cl
- carcinogen call (Species: MOUSE, Strain/Sex: B6C3F1/FEMALE, Route: ORAL, Dose: 0, 300, 600 PPM IN DIET, Dose: 0, 300, 600 PPM IN DIET): inactive; negative
- carcinogen call (Species: MOUSE, Strain/Sex: B6C3F1/MALE, Route: ORAL, Dose: 0, 600, 1200 PPM IN DIET, Dose: 0, 600, 1200 PPM IN DIET): inactive; negative
- carcinogen call (Species: RAT, Strain/Sex: F344/FEMALE, Route: ORAL, Dose: 0, 1635, 3269 PPM IN DIET, TWA, Dose: 0, 1635, 3269 PPM IN DIET, TWA): inactive; negative
- carcinogen call (Species: RAT, Strain/Sex: F344/MALE, Route: ORAL, Dose: 0, 1635, 3269 PPM IN DIET, TWA, Dose: 0, 1635, 3269 PPM IN DIET, TWA): inactive; negative

SMILES: CC[C@H](OC(C)=O)C(C[C@H](C)N(C)C)(c1ccccc1)c1ccccc1
- carcinogen call (Species: MOUSE, Strain/Sex: B6C3F1/FEMALE, Route: ORAL, Dose: 0, 7.6, 30.1 MG/KG IN DIET FOR DURATION OF STUDY (STUDY DURATION: 24 MO), Dose: 0, 7.6, 30.1 MG/KG IN DIET FOR DURATION OF STUDY (STUDY DURATION: 24 MO)): inactive; negative
- carcinogen call (Species: MOUSE, Strain/Sex: B6C3F1/MALE, Route: ORAL, Dose: 0, 7.6, 30.1 MG/KG IN DIET FOR DURATION OF STUDY (STUDY DURATION: 24 MO), Dose: 0, 7.6, 30.1 MG/KG IN DIET FOR DURATION OF STUDY (STUDY DURATION: 24 MO)): inactive; negative
- carcinogen call (Species: RAT, Strain/Sex: F344/FEMALE, Route: ORAL, Dose: 0, 5.7, 16.6 MG/KG IN DIET FOR DURATION OF STUDY (STUDY DURATION: 24 MO), Dose: 0, 5.7, 16.6 MG/KG IN DIET FOR DURATION OF STUDY (STUDY DURATION: 24 MO), Tumor Site: Type of Lesion: LIVER: ADENOMA OR CARCINOMA, UTERUS: ENDOMETRIAL STROMAL POLYP): active; positive
- carcinogen call (Species: RAT, Strain/Sex: F344/MALE, Route: ORAL, Dose: 0, 3.1, 9.7 MG/KG IN DIET FOR DURATION OF STUDY (STUDY DURATION: 24 MO), Dose: 0, 3.1, 9.7 MG/KG IN DIET FOR DURATION OF STUDY (STUDY DURATION: 24 MO), Tumor Site: Type of Lesion: LIVER: ADENOMA OR CARCINOMA): active; positive

SMILES: COc1ccc(C)cc1N
- carcinogen call (Species: MOUSE, Strain/Sex: B6C3F1/FEMALE, Route: ORAL, Dose: 0, 0.22, 0.44% TWA, IN DIET FOR 104 WK (STUDY DURATION: 97-106 WK), Dose: 0, 0.22, 0.44% TWA, IN DIET FOR 104 WK (STUDY DURATION: 97-106 WK), Tumor Site: Type of Lesion: LIVER: HEPATOCELLULAR CARCINOMA, HEPATOCELLULAR CARCINOMA OR ADENOMA, URINARY BLADDER: TRANSITIONAL CELL CARCINOMA OR CA): active; positive
- carcinogen call (Species: MOUSE, Strain/Sex: B6C3F1/MALE, Route: ORAL, Dose: 0, 0.22, 0.46% TWA, IN DIET FOR 92-104 WK (STUDY DURATION: 92-106 WK), Dose: 0, 0.22, 0.46% TWA, IN DIET FOR 92-104 WK (STUDY DURATION: 92-106 WK), Tumor Site: Type of Lesion: URINARY BLADDER: SQUAMOUS CELL CARCINOMA OR TRANSITIONAL CELL CARCINOMA): active; positive
- carcinogen call (Species: RAT, Strain/Sex: F344/FEMALE, Route: ORAL, Dose: 0, 0.5, 1.0% IN DIET FOR 104 WK (STUDY DURATION: 106 WK), Dose: 0, 0.5, 1.0% IN DIET FOR 104 WK (STUDY DURATION: 106 WK), Tumor Site: Type of Lesion: NASAL CAVITY: OLFACTORY NEUROBLASTOMA, URINARY BLADDER: NEOPLASM (NOS) OR PAPILLARY CARCINOMA OR SQUAMOUS CELL CARCINOMA): active; positive
- carcinogen call (Species: RAT, Strain/Sex: F344/MALE, Route: ORAL, Dose: 0, 0.5, 1.0% IN DIET FOR 104 WK (STUDY DURATION: 105-106 WK), Dose: 0, 0.5, 1.0% IN DIET FOR 104 WK (STUDY DURATION: 105-106 WK), Tumor Site: Type of Lesion: NASAL CAVITY: NEUROBLASTOMA OR OLFACTORY NEUROBLASTOMA, LIVER: NEOPLASTIC NODULE OR HEPATOCELLULAR CARCINOMA OR MIXED HE): active; positive

SMILES: Brc1cc(Br)c2cccnc2c1
- carcinogen call (Species: RAT, Strain/Sex: F344/FEMALE, Route: ORAL, Dose: 0.1% IN DIET FOR 2 YR): inactive; negative

SMILES: CC(=O)Nc1ccc(CC(=O)O)cc1
- carcinogen call (Species: MOUSE, Strain/Sex: B6C3F1/FEMALE, Route: ORAL, Dose: 0;300, 1000, 3000 MG/KG IN DIET FOR 78 WK (STUDY DURATION: 78 WK), Dose: 0;300, 1000, 3000 MG/KG IN DIET FOR 78 WK (STUDY DURATION: 78 WK)): inactive; negative
- carcinogen call (Species: MOUSE, Strain/Sex: B6C3F1/MALE, Route: ORAL, Dose: 0, 300, 1000, 3000 MG/KG IN DIET FOR 78 WK (STUDY DURATION: 78 WK), Dose: 0, 300, 1000, 3000 MG/KG IN DIET FOR 78 WK (STUDY DURATION: 78 WK)): inactive; negative
- carcinogen call (Species: RAT, Strain/Sex: F344/FEMALE, Route: ORAL, Dose: 0, 300, 1000, 3000 MG/KG/D IN DIET FOR 104 WK (STUDY DURATION: 104 WK), Dose: 0, 300, 1000, 3000 MG/KG/D IN DIET FOR 104 WK (STUDY DURATION: 104 WK)): inactive; negative
- carcinogen call (Species: RAT, Strain/Sex: F344/MALE, Route: ORAL, Dose: 0, 300, 1000, 3000 MG/KG/D IN DIET FOR 104 WK (STUDY DURATION: 104 WK), Dose: 0, 300, 1000, 3000 MG/KG/D IN DIET FOR 104 WK (STUDY DURATION: 104 WK)): inactive; negative

SMILES: Cc1cccc2ccccc12
- carcinogen call (Species: MOUSE, Strain/Sex: B6C3F1/FEMALE, Route: ORAL, Dose: 0, 0.075, 0.15% IN DIET FOR 81 WK (STUDY DURATION: 81 WK), Dose: 0, 0.075, 0.15% IN DIET FOR 81 WK (STUDY DURATION: 81 WK)): inactive; negative
- carcinogen call (Species: MOUSE, Strain/Sex: B6C3F1/MALE, Route: ORAL, Dose: 0, 0.075, 0.15% IN DIET FOR 81 WK (STUDY DURATION: 81 WK), Dose: 0, 0.075, 0.15% IN DIET FOR 81 WK (STUDY DURATION: 81 WK), Tumor Site: Type of Lesion: LUNG: ADENOMA): active; positive
